Target: T1, human CA9 (Homo sapiens, UniProt Q16790)
T1 construct: purchased SinoBiological
Assay: Intermolecular interaction against human CA9 by surface plasmon resonance (SPR)
Format: binding
Conditions: Human CA9-Fc captured on Protein A sensor chip, Single Cycle Kinetics, KD values only in Tables 7, 8 (images)
Experimental: The intermolecular interactions of the peptides against human CA9 protein were examined by surface plasmon resonance (SPR) for the various peptides or conjugates synthesized in Examples 1 and 2, according to the methods described below. Specific test methods are described below.
Protein A sensor chip (Cytiva) was inserted into BiacoreT200 (Cytiva) and primed with running buffer: 1× HBS-P+ (Cytiva), 1.0 % DMSO (Fujifilm Wako Pure Chemical Corporation), and 50 µM zinc acetate dihydrate (Hampton research), and equilibrated at a flow rate of 30 µL/min. 50 nM Human CA9-Fc (SinoBiological) diluted with running buffer was reacted at a flow rate of 5 µL/min for 60 seconds and captured into a flow cell.
A solution containing each peptide or conjugate synthesized in Example 1 or 2 and prepared at 1 mM in DMSO solution was diluted with running buffer to a final concentration of 100 nM. Then, the peptide or conjugate solutions at 25 nM and 5 nM were further prepared. Depending on the affinity of the peptide or conjugate, the solution was diluted with running buffer to a final concentration of 40 nM. […]
Using the above samples, the kinetics of each peptide or conjugate against human CA9 was obtained by SPR measurement. […] The binding of each peptide or conjugate to human CA9 was evaluated by performing least-squares curve fitting on the obtained sensorgram to calculate the KD value.

activity of binding to human CA9 (CA9 binding ability): possesses CA9 binding ability
Substance: C1Ac-da-Tbg-3Py6CON-Hgl-Meda-Ahp-PeG-S-3Py6NH2-HseMe-dk-Y-MeC [SEQ ID No. 45]
